Measurements as given in US10494341B2, “Compound containing indoleacetic acid core structure and use thereof” (Beijing An Jian Xi Bio-Medical Technology Co., Ltd., priority 2015, dated 2019).

Columns and labels:
[1] = tested on: mouse colon cancer cells (MCA-38); assay: Killing effect of cisplatin on tumor cells with compound (LDH); type: cell-based; conditions: MCA-38, 10, 30 and 90 μM, 24 hours
Experimental: The mechanism of compounds enhancing killing effect of chemotherapeutic agents on tumor cells while protecting normal cells: mouse colon cancer cells (MCA-38) and primarily-cultured normal mouse intestinal mucosa cells were cultured in a 96-well plate, respectively. 24 hours later, various concentrations (10, 30 and 90 μM) of compound b was respectively added to the cell culture medium, and incubated for 24 hours. LDH was used to detect the damage of the cells, and the cells were collected and extracted for protein. The expression levels of adenosine triphosphate-binding transporter (ABCG2) and the cell cycle-dependent protein […] (p21) were detected by immunoblotting (performed according to the instructions provided by the manufacturer). […] ABCG2 is a transporter, and can pump anticancer drugs out of the cells. […] The high expression of p21 allows the cells to be in non-dividing quiescent phase, so that cells are not sensitive to chemotherapeutic drugs or injury in other forms. The compounds of the present invention make these proteins expressed differentially in normal tissues and tumor tissues, which is one of the reasons for selectively protecting normal tissues and enhancing the sensitivity of tumors to treatment.

A549 cells = assay: A549 transplanted tumors in nude mice, compound used alone; type: in vivo
Experimental: Except cisplatin (intraperitoneal injection, once a week), all compounds were administered by gavage, once a day for 5 weeks continuously.

SW480 cells = assay: Degradation of the compound in cells (HPLC); type: in vitro ADME; conditions: 10 μM
Experimental: (§1) Determination of the stability of the compound: (1) degradation of the compound in plasma: Compound a (10 μM) dissolved in DMSO was cultured with 10% bovine serum medium (5 mL) at 37° C. 200 μL of medium was collected at the time points of 1, 3, 6, 12 and 24 hours, respectively, added with equal volume of acetonitrile for reaction, and subjected to high speed centrifugation (13,000 rpm) for 5 minutes. The level of degradation of the compound was determined by HPLC. (2) Degradation of the compound in cells: the compound a dissolved in DMSO was added at a final concentration of 10 μM to a 6-well culture dish containing SW480 cells and incubated in carbon dioxide incubator. The cells were collected at the time points of 1, 3, 6, 12, and 24 hours, respectively, washed fully, then extracted with 0.5 mL of acetonitrile, and centrifuged at high speed (12,000 rpm) for 5 minutes. The level of degradation of the compound in the organic phase was determined by HPLC.

HT-29 cells = assay: HT-29 transplanted tumors in nude mice, compound a in combination with doxorubicin; type: in vivo; conditions: Doxorubicin 2 mg/kg/week i.p. or compound a 3 mg/kg/day gavage, 4 weeks
Experimental: Compound a was administered by gavage once a day for 4 weeks continuously; Doxorubicin was injected intraperitoneally once a week for 4 weeks. Body weight and tumor volume of animals were measured and calculated according to Example 9.

[2] = Degradation of the compound in plasma (10% bovine serum medium, HPLC); type: in vitro ADME; conditions: 10 μM, 37° C., within 24 hours
Experimental: as §1

| Compound | killing effect of cisplatin on colon cancer cells [1] | inhibition of tumors (A549 cells; A549, high-dose compound a (25 mg/kg/day) gavage, 5 weeks) | inhibitory effect on the tumor (A549 cells; A549, cisplatin 5 mg/kg/week i.p., compound a 5 and 25 mg/kg/day, intermediates 12.5 mg/kg/day each) | body weights of the animals (A549 cells; A549, high dose, during administration) | compound hydrolyzed in cells (SW480 cells; within 3 hours) | compound hydrolyzed in cells (SW480 cells; within 24 hours) | inhibition of the tumor, administered alone (HT-29 cells) | compound hydrolyzed in bovine serum [2] |
| --- | --- | --- | --- | --- | --- | --- | --- | --- |
| COc1ccc2c(CC(=O)OCCCCCCCCCCc3c(C)c(O)c(OC)c(OC)c3O)c(C)n(C(=O)c3ccc(Cl)cc3)c2c1 [compound b] | significantly enhances the killing effect of cisplatin | – | – | – | – | – | – | – |
| COC1=C(OC)C(=O)C(CCCCCCCCCCOC(=O)Cc2c(C)n(C(=O)c3ccc(Cl)cc3)c3cc(OC)ccc23)=C(C)C1=O [compound a] | – | ≥ 60% | dose-dependent inhibitory effect against tumor | not significantly reduced | ~80% | completely hydrolyzed | only slightly inhibited | 11% |
